The source of these data is paper PMC10744032, “Regioselective and Stereoselective Synthesis of Parthenolide Analogs by Acyl Nitroso-Ene Reaction and Their Biological Evaluation against Mycobacterium tuberculosis” (International Journal of Molecular Sciences, 2023).

≈ marks a conversion by molar mass, not a printed value. Like-named read-outs stand apart in the source and are kept apart here.

The subject of series [1] is Staphylococcus aureus (SH1000). In words: microbe, parasite or virus in culture. It is filed as cell-based. Conditions: 5 h incubation, resazurin readout, tested 300 to 2.3 µM, read-out: MIC90 S. aureus (REMA). (The colour change of resazurin is a common sign of viable cells or microbes.)
Another series relates to BALB/3T3 cells. The series can be described thus: Cytotoxicity by live imaging (Hoechst 33342 / propidium iodide). In kind it is cell-based. The conditions noted are these: BALB/3T3 cells; 0, 12.5, 25, 50, 100 µM; imaging at 24 h and 48 h; read-out: Cytotoxicity Balb3T3 CC50. As to the method: (§1) The cytotoxicity of the compounds to BALB/3T3 cells was determined using live imaging following both Hoechst 33342 and propidium iodide staining. Briefly, BALB/3T3 cells were seeded in a 384-well plate and 24 h later, the compounds were added (0, 12.5, 25, 50, and 100 µM) to the culture medium, as well as Hoechst 33342 and propidium iodide (PI). Then, 24 h and 48 h after the compounds were added, live imaging was performed using an In Cell Analyzer 6000 (STP GE Healthcare, Glascow, UK). The cytotoxicity was defined based on the ratio of the population of dead or dying cells (propidium iodide staining) to the total cell population (Hoechst staining), as determined using Columbus software 2.9.1 (PerkinElmer Informatics, WA, USA). The compounds were tested in triplicate. Carfilzomib (500, 250, 140, and 60 nM) was used as the positive control in this assay.

The test system of series [2] is M. tuberculosis H37Rv expressing GFP (H37Rv::pJKD6). In words: microbe, parasite or virus in culture. The conditions noted are these: for MIC: Mycobacterium tuberculosis, H37RV, 168 h, read-out: MIC98 M. tuberculosis (GFP). It is filed as cell-based, Mycobacterium tuberculosis.
In the next series the test system is M. tuberculosis H37Rv. The series can be described thus: microbe, parasite or virus in culture. Conditions: 7 days incubation, resazurin readout, tested 300 to 2.3 µM, read-out: MIC90 M. tuberculosis (REMA). It is filed as cell-based, Mycobacterium tuberculosis.
The nature of series [3]: Kinetic solubility in PBS by LC-MS/MS. In kind it is physicochemical. As to the method: The kinetic solubility was determined using LC–MS/MS analysis in PBS at pH 7.4. Briefly, a 10 mM 100% DMSO solution of the compound was diluted 50-fold either in PBS at pH 7.4 (in triplicate) or in DMSO in polypropylene tubes (n = 3 for PBS and n = 6 for DMSO). The tubes were gently shaken for 24 h at 21 °C. Then, the three PBS tubes and three of the six DMSO tubes were centrifuged for 5 min at 4000 rpm and filtered over 0.45 μm filters (Millex-LH Millipore). Then, 40 μL of each solution was diluted in 160 μL of MeCN and 40 µL of Milli-Q water and transferred to matrix tubes for the LC–MS/MS analysis. The solubility was determined according to the following formula: Solubility (μM) = (AUC (filtered PBS)/AUC (not filtered DMSO)) × 200. The test was validated if (AUC (not filtered DMSO) − AUC (filtered DMSO))/AUC (not filtered DMSO) ≤ 10%.

A short description of series [4]: Cytotoxicity by live imaging (Hoechst 33342 / propidium iodide). In kind it is cell-based. The conditions noted are these: mouse. As to the method:
as §1

The next series deals with M. tuberculosis strains. Also on record: method as in PMID 9747541. The conditions noted are these: cited from earlier work.
Setting [5] is: Mycobacterium tuberculosis, H37RV, 168 h.
Setting [6] is: 21 °C, pH 7.4, aqueous buffer, kinetic from dmso stock.

In the case of “tert-butyl-N-hydroxy-N-[(1S,2S,4R,7R,11S)-4-methyl-8,12-dimethylene-13-oxo-3,14-dioxatricyclo[9.3.0.02,4]tetradecan-7-yl]carbamate [Compound 12]”, the MIC90 is above 300 µM in series [1] and 38 µM in the series with M. tuberculosis H37Rv. Besides, the 50% cytotoxic concentration (CC50) with BALB/3T3 cells is above 100 µM. Besides, the “MIC98 M. tuberculosis (GFP)” value in series [2] is 19 to 38 µM. In series [3] (kinetic solubility, PBS pH 7.4, 24 h at 21 °C, from 10 mM DMSO solution diluted 50-fold, read-out: Solubility), the solubility at 24 h stood at 176 µM.
In the case of `C=CCOC(=O)N(O)[C@@H]1CC[C@@]2(C)O[C@H]2[C@H]2OC(=O)C(=C)[C@@H]2CCC1=C` [Compound 13, Allyl-N-hydroxy-N-[(1S,2S,4R,7R,11S)-4-methyl-8,12-dimethylene-13-oxo-3,14-dioxatricyclo [9.3.0.02,4]tetradecan-7-yl]carbamate], the MIC90 in series [1] (Staphylococcus aureus) is above 300 µM; in the series on M. tuberculosis H37Rv (setting [5]), 38 to 75 µM (≈ 13.8 to 27.3 µg/mL). The cytotoxic concentration (CC50) in series [4] is above 12.5 µM. Also, the MIC in series [2] came out at 38 µM (≈ 13.8 µg/mL). In series [3] (setting [6]), this molecule registered a solubility at 24 h of 192 µM (≈ 69.8 µg/mL).
On the same counts, the results for `C=C1CC[C@H]2C(=C)C(=O)O[C@@H]2[C@@H]2O[C@]2(C)CC[C@H]1N(O)C(=O)Nc1ccc(C)cc1` [Compound 5, 1-hydroxy-1-[(1S,2S,4R,7R,11S)-4-methyl-8,12-dimethylene-13-oxo-3,14-dioxatricyclo[9.3.0.02,4]tetradecan-7-yl]-3-(p-tolyl)urea] are above 300 µM, 19 to 38 µM (≈ 7.84 to 15.7 µg/mL), 12.5 µM, 19 µM (≈ 7.84 µg/mL) and 186 µM (≈ 76.7 µg/mL).
Turning to `C=C1C(=O)O[C@H]2[C@H]1CC/C(C)=C/CC[C@@]1(C)O[C@@H]21` [Compound 1, Parthenolide], the results for the MIC90 (in series [1] (Staphylococcus aureus); in the series on M. tuberculosis H37Rv (setting [5])) were above 300 µM and 9.4 to 19 µM (≈ 2.33 to 4.72 µg/mL), respectively. This molecule also registered a CC50 in series [4] above 100 µM. Further, the MIC in series [2] was 9.4 to 19 µM (≈ 2.33 to 4.72 µg/mL). For the same molecule, the “minimum inhibitory concentration (MIC) against M. tuberculosis strains” value with M. tuberculosis strains is given as 16 µg/mL (≈ 64.4 µM). Further, the concentration in solution in series [3] (setting [6]) (solubility at 24 h) was 135 µM (≈ 33.5 µg/mL).
`C=C1CC[C@H]2C(=C)C(=O)O[C@@H]2[C@@H]2O[C@]2(C)CC[C@H]1N(O)C(=O)OCC(Cl)(Cl)Cl` [Compound 15, 2,2,2-trichloroethyl-N-hydroxy-N-[(1S,2S,4R,7R,11S)-4-methyl-8,12-dimethylene-13-oxo-3,14-dioxatricyclo[9.3.0.02,4]tetradecan-7-yl]carbamate]: the results for the MIC90 (in series [1] (Staphylococcus aureus); in the series with M. tuberculosis H37Rv (setting [5])) were above 300 µM and 38 µM (≈ 17.3 µg/mL), respectively. In series [4], the CC50 was determined as 12.5 µM. In series [2], the MIC worked out at 19 µM (≈ 8.64 µg/mL). The same molecule registered a solubility at 24 h in series [3] (setting [6]) of 184 µM (≈ 83.7 µg/mL).
Taken in the same sequence, the figures for `C=C1CC[C@H]2C(=C)C(=O)O[C@@H]2[C@@H]2O[C@]2(C)CC[C@H]1N(O)C(=O)Nc1ccccc1` [Compound 4, 1-hydroxy-1-[(1S,2S,4R,7R,11S)-4-methyl-8,12-dimethylene-13-oxo-3,14-dioxatricyclo[9.3.0.02,4]tetradecan-7-yl]-3-phenyl-urea] were above 300 µM, 19 to 38 µM (≈ 7.57 to 15.1 µg/mL), 25 µM, 9.4 to 19 µM (≈ 3.75 to 7.57 µg/mL) and 186 µM (≈ 74.1 µg/mL).
On the same counts, the results for `C=C1CC[C@H]2C(=C)C(=O)O[C@@H]2[C@@H]2O[C@]2(C)CC[C@H]1N(O)C(=O)NCc1ccccc1` [Compound 6, 3-benzyl-1-hydroxy-1-[(1S,2S,4R,7R,11S)-4-methyl-8,12-dimethylene-13-oxo-3,14-dioxatricyclo [9.3.0.02,4]tetradecan-7-yl]urea] are above 300 µM, 38 to 75 µM (≈ 15.7 to 30.9 µg/mL), above 25 µM, 19 to 38 µM (≈ 7.84 to 15.7 µg/mL) and 196 µM (≈ 80.8 µg/mL).
For the molecule `C=C1CC[C@H]2C(=C)C(=O)O[C@@H]2[C@@H]2O[C@]2(C)CC[C@H]1N(O)C(=O)OCc1ccccc1` [Compound 14, Benzyl-N-hydroxy-N-[(1S,2S,4R,7R,11S)-4-methyl-8,12-dimethylene-13-oxo-3,14-dioxatricyclo[9.3.0.02,4]tetradecan-7-yl]carbamate], the values for the MIC90 (in series [1] (Staphylococcus aureus); in the series on M. tuberculosis H37Rv (setting [5])) were above 300 µM and 75 µM (≈ 31 µg/mL), respectively. In series [4], this molecule yielded a CC50 above 12.5 µM. The MIC in series [2] is 38 µM (≈ 15.7 µg/mL). In series [3] (setting [6]), the concentration in solution (solubility at 24 h) came to 191 µM (≈ 79 µg/mL).

For orientation: CC50 means the concentration that lowers cell viability or growth by half. The term solubility denotes how much of the substance goes into solution per volume.
